Test results: publication doi:10.1101/2023.09.01.555951v1 (biorxiv, 2023)
Residue numbers refer to the chain shown, from its start.

Assays:
[1] = target: T1, OpuAC (isolated SBD of OpuA) (Lactococcus lactis, UniProt Q7DAU8, K521C/S319C); assay: intrinsic tryptophan fluorescence titration; assay type: binding
T1 sequence (Q7DAU8 319-573 S319C/K521C): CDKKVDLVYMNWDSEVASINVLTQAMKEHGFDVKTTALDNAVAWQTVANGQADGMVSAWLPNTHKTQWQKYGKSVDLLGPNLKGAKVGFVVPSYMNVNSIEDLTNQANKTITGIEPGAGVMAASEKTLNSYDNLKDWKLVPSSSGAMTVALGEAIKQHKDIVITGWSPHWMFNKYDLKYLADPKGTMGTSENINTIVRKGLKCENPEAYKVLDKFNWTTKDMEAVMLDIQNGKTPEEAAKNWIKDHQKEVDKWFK

[2] = target: T2, OpuAC (isolated SBD of OpuA) (Lactococcus lactis, UniProt Q7DAU8); assay: intrinsic tryptophan fluorescence titration; assay type: binding
T2 sequence (Q7DAU8 319-573): T1 sequence (Q7DAU8 319-573 S319C/K521C) with C1S, C203K

Kd [1]: 4.3 ± 0.4 µM | Kd [2]: 4.4 ± 0.1 µM
Compound: C[N+](C)(C)CC(=O)[O-] [glycine betaine]
